No end group written: not given here.
How the values were obtained:
AN3CA cells = experiment: In vivo metastasis assay (retro-orbital injection) in NOD/SCID mice; settings: 6 weeks after injection
Description: All experimental procedures involving animals were conducted in accordance with the institutional guidelines set forth by the Children's Hospital Boston (CHB animal protocol number 11-09-2022). Eight to ten-week-old NOD/SCID mice were housed in a specific pathogen-free facility. To generate a xenograft mouse model, NOD/SCID mice were injected with 2×10^6 cells into right flanks. Cells were resuspended in 0.1 ml of PBS and then mix with 0.1 ml of matrigel. Two cell lines were prepared for xenografts: AN3CA and HEC-1A. Tumor sizes were measured weekly. As for metastasis mouse model, 1×10^6 AN3CA cells—were injected via the retro-orbital sinus as described previously (2). […] Cell proliferation in tumor was determined by staining histological sections with monoclonal antibody against Ki-67 (BD, Cat. No. 556003), and apoptosis was evaluated by terminal uridine deoxynucleotidyl transferase dUTP nick end labeling (TUNEL) assay (in situ cell death detection kit, Promega, Cat. No. G3250) according to manufacturer's protocol.
Next assessed was whether loss of SALL4 could affect tumor invasiveness. […] The invasive potential of these three cell lines in vitro: AN3CA, HEC-1A and Ishikawa cells was compared, and a strong association between SALL4 expression and invasive capacity was detected, with Ishikawa showing the least migration/invasion ability (data not shown). […]

SALL4A and SALL4B = experiment: SALL4 knock-down in endometrial cancer cells (Western blot, qRT-PCR); format: cell-based, human; settings: AN3CA and HEC-1A
Text: In brief, the expression plasmids for human SALL4A and SALL4B were constructed using FUW-Luc-mCh-puro vector (FIG. 43A). SALL4A or SALL4B mutant preserving the same amino acid sequence, but containing triple-point mutations within the SALL4shRNA1 target nucleotide sequence, which renders the transgenes resistant to SALL4 shRNA targeting, were generated using QuikChange site-directed mutagenesis kit (Stratagene) and confirmed by sequencing. Short hairpin RNAs set for human SALL4 in pLKO.1-puro vector were purchased from Open Biosystems (RHS3979) and knockdown efficiency was further evaluated. Two of them, designated as SALL4shRNA1 and SALL4shRNA 2, were selected for subsequent experiments. The sequences for SALL4 shRNAs and Scramble shRNA are listed as following: SALL4shRNA1: […] (SEQ ID NO: 3); SALL4shRNA 2: CTATTTAGCCAAAGGCAAA (SEQ ID NO: 2); Scr-shRNA: […] (SEQ ID NO: 14)
To assess the biological functional role of SALL4 in endometrial cancer, first evaluated was SALL4 expression in a panel of six endometrial cancer cell lines using quantitative real-time PCR to select for appropriate models for our functional studies (FIG. 40). […]

SNU398 cells = settings: after addition to cell culture plates
Description: Confocal microscopy was next used to study cellular uptake of TAT-WT by SNU398 cells in vitro.

HuH-7 = experiment: Cellular uptake of FITC-labeled peptide; format: cell-based, human; settings: HuH-7, with Chariot
Description: (§1) Cells were grown typically in 6 well plates (35 mm dish) to 50-70% confluence. Usually the transfect ion efficiency is somehow cell type specific. 2 mM peptide was diluted 4 times in PBS (2 ul+6 ul) (For FITC peptidedo not dilute the 2 mM stock). For each transfection reaction tube with 100 ul PBS+1 ul diluted peptide was set up. Chariot reagent was diluted 1:10 in ddH2O and for each transfection a 94 ul H2O tube+6 ul diluted Chariot was prepared (No master mix for more than 4 transfections). The 2 tubes were carefully mixed by pipetting up and down and incubated 30 min. at room temperature. Medium was aspirated from the dish (well) and cells were overlay with the mix. 400 ul serum free medium was added and cells were incubated further for 1 h 37 C (cell incubator). 500 ul complete medium (with 10% serum) was finally added. If cells are not very sensitive to serum starvation (cancer cell lines) 5% serum could be used.
(§2) Fluorescent and Confocal microscopy was performed on cells treated with FITC labeled peptides with or without of transfection reagent depending on the cell type. Cells were mounted on cover slips using mounting media with DAPI (Invitrogen) and in some cases cytoskeleton dye (Invitrogen).
(§3) In order to evaluate their cellular uptake and localization, the N terminus of these peptides was labeled with fluorescein isothiocyanate (FITC). Despite the net positive charge of these peptides, their uptake by the cells is cell-type specific. Some cell lines such as HL-60 (an AML cell line) allowed the peptide to enter the cells without any modification or carrier, and some cell lines were not penetrable at all. In order to achieve a similar level of peptide delivery in most cell types, a Chariot Transfection Reagent (Active Motif) was used as a peptide carrier, as directed from the manufacturer. All cell types used in the study described herein were subjected to individual evaluation of the percentage of the cells in which the peptide was delivered as well as the duration of time during which they sustained the labeled peptide in the cells. After Chariot treatment, confocal microscopy studies confirmed uptake of these peptides throughout the cell, including nuclei (as evidenced by DAPI overlay, FIG. 1B).

HL60 = experiment: Cellular uptake of FITC-labeled peptide; format: cell-based, human; settings: HL60, no carrier
Description: as §1, §2, §3

SNU387 = experiment: Cellular uptake of FITC-labeled peptide; format: cell-based, human; settings: SNU387, with Chariot
Description: as §1, §2, §3

AML = experiment: Cellular uptake of FITC-labeled peptide; format: cell-based, human; settings: with Chariot
Description: as §1, §2, §3

AML3 = experiment: Cellular uptake of FITC-labeled peptide; format: cell-based; settings: AML3, no carrier
Description: as §1, §2, §3

MCF7 = experiment: Cellular uptake of FITC-labeled peptide; format: cell-based; settings: MCF7, with Chariot
Description: as §1, §2, §3

KG1a = experiment: Cellular uptake of FITC-labeled peptide; format: cell-based; settings: no carrier
Description: as §1, §2, §3

CD34+ = experiment: Cellular uptake of FITC-labeled peptide; format: cell-based; settings: with Chariot
Description: as §1, §2, §3

SNU-398 = experiment: Cellular uptake of FITC-labeled peptide; format: cell-based, human; settings: SNU-398, with Chariot
Description: as §1, §2, §3
Next tested was the cellular uptake and localization of these peptides in various types of cells using FITC-labeled wild type or scrambled peptides. Despite the net positive charge of these peptides, their penetration into cells is cell type-specific. Some cell lines, such as HL-60 (an AML cell line), allowed peptide entry without any modification or facilitator, while others such as SNU-398 were not penetrable at all. […] The overall success rate of peptide uptake by the cells was above 95% with Pep-1, as evaluated by flow cytometry (FIG. 9A). […]

With CCTAAGGTTAAGTCGCCCTCG [scramble shRNA] the metastatic tumor formation (AN3CA cells) was “Four out of five”.

In the case of “GCCTTGAAACAAGCCAAGCTA (expressed or natural sequence) [SALL4-sh1]”, the “down-regulation of SALL4A and SALL4B” value (SALL4A and SALL4B) is reported as “could down-regulate SALL4A and SALL4B efficiently”.

“YGRKKRRQRRRMSRRKQAKPHI [TAT-WT, NH2-YGRKKRRQRRR-MSRRKQAKPHI-COOH]” was tested, and the “time to localization within the nucleus” value (SNU398 cells) was ≤ 15 min.

In the case of “MSRRAQAKPQHI [Mut peptide, MSRRAQAKPQHI, reference compound]”, the “peptide uptake (cells with peptide)” value (HuH-7) is reported as 60% (ch), the “peptide uptake (cells with peptide)” value (HL60) is reported as ~50% and the “peptide uptake (cells with peptide)” value (SNU387) is reported as 60% (Ch). For the same sequence, the “peptide uptake (cells with peptide)” value (AML) was 50% (Ch), the “peptide uptake (cells with peptide)” value (AML3) was ~10% and the “peptide uptake (cells with peptide)” value (MCF7) was 70% (Ch). For the same sequence, the “peptide uptake (cells with peptide)” value (KG1a) was >15%, the “peptide uptake (cells with peptide)” value (CD34+) was 50% (Ch) and the “peptide uptake (cells with peptide)” value (SNU-398) was 60% (Ch).
